Measurements taken from patent US20120302748A1, “TREATMENT OR PROPHYLAXIS OF PROLIFERATIVE CONDITIONS” (THE UNIVERSITY COURT OF THE UNIVERSITY OF DUNDEE, priority 2009, published 2012).
Like-named read-outs stand apart in the source and are kept apart here.

What was measured:
CYP1B1 [1] = biological target: T1, CYP1B1 (Homo sapiens, UniProt Q16678); experiment: Supersomal CYP1B1 fragmentation of coumarin model prodrugs (kinetic fluorimetry); assay type: biochemical; set-up: purchased BD Gentest, Oxford, UK; conditions: for Specific fragmentation activity CYP1B1: 10 μmol dm^−3 prodrug, 10 pmol enzyme, pH 7.4, 37° C., mean ± standard deviation of three
T1 sequence (Q16678 1-543): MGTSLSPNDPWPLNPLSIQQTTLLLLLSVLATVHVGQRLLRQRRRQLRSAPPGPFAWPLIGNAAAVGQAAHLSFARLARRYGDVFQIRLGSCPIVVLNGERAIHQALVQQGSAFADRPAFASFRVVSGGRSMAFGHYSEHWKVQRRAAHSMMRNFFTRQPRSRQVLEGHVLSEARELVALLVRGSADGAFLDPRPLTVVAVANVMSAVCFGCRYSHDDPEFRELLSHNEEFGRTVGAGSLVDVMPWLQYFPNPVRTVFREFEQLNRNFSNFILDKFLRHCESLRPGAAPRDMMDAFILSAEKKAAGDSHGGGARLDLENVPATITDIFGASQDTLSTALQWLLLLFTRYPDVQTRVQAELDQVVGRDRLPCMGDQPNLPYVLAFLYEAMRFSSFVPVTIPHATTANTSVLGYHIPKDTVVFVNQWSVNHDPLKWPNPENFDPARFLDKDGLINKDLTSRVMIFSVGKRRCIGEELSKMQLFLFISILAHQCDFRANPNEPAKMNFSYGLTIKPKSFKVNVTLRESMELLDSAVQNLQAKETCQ
Protocol: (§1) Supersomal™ enzyme metabolism was started by adding a stock solution of prodrug dissolved in DMSO to give a final concentration of 10 μmol dm^−3 prodrug and 0.5% DMSO. HLM screening used 60 microlitre microsomes, 100 μmol dm^−3 NADPH, in 10 mmol dm^−3 potassium phosphate buffer at pH 7.4 and 37° C., in 1.5 ml total reaction volume.
(§2) Therefore, enzymatic hydroxylation of the hetero-aromatic trigger and resultant linker fragmentation can be monitored in real time by release of the coumarin anion by kinetic fluorimetry.
(§3) Release of the coumarin anion indicative of linker fragmentation was monitored using a 1 cm path length fluorescence cell in a Cary Eclipse kinetic flourimeter with excitation and emission slits set at 5 nm. Coumarin anion release from compounds of the invention was detected at the excitation wavelength λex=350 nm and the emission wavelength λem=450 nm. Change in fluorescence intensity was quantified against a linear calibration plot of fluorescence intensity versus coumarin concentration (0 to 3.5 μmol dm^−3) in 10 mmol dm^−3 potassium phosphate buffer at pH 7.4 using the same instrument settings as for enzyme metabolism.

CYP1A2 = biological target: T2, CYP1A2 (Homo sapiens, UniProt P05177); experiment: Supersomal CYP1A2 fragmentation of coumarin model prodrugs (kinetic fluorimetry); assay type: biochemical; conditions: 10 μmol dm^−3 prodrug, 10 pmol enzyme, pH 7.4, 37° C.; mean ± standard deviation of three
T2 construct: purchased BD Gentest, Oxford, UK
T2 sequence (P05177 2-516 limits assumed): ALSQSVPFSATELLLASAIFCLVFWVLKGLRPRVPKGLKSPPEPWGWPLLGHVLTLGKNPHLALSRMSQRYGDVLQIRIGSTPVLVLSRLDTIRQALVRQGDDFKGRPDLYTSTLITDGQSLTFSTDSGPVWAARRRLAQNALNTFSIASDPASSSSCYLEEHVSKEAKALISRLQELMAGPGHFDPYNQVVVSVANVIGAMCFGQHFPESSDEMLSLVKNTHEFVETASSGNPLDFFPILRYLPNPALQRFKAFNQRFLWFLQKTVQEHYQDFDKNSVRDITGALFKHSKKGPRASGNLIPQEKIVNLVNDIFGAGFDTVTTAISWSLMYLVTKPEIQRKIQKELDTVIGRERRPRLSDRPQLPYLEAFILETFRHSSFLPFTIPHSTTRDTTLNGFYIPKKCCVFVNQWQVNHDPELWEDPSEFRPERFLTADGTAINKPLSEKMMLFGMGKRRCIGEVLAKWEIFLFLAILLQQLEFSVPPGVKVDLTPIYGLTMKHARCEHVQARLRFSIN
Protocol: as §1, §2, §3

[2] = tested on: human liver microsomes (HLM); experiment: Pooled human liver microsome (HLM) fragmentation of coumarin model prodrugs; assay type: in vitro ADME; conditions: 60 μl HLM in 1.5 ml, pH 7.4, 37° C.; mean ± standard deviation of three
Protocol: as §1, §2, §3

CHO/CYP1B1 cells [3] = tested on: CHO/CYP1B1 cells
UT-SCC-14 tumour cells = experiment: Cytotoxicity in primary HNSCC tumour cell line UT-SCC-14 (MTS assay); conditions: Homo sapiens, 72 h, read-out: cytotoxicity IC50 UT-SCC-14
Protocol: A UT-SCC-14 tumour cell suspension at 2000 cells per well on a 96-well plate and if necessary add fresh media to give a total volume per well of 100 μl. The cells were allowed to attach for 4 h in an incubator. […] The final concentration of ethanol 0.2% was found not to effect the growth characteristics of the UT-SCC-14 cell line. The UT-SCC-14 cells were incubated with test compound for 72 h after which time all aspirated and replaced with 100 μl of fresh medium to compensate for the loss of medium due to evaporation. The cells were incubated with 20 μl of the MTS assay reagent for 1.5 h and the absorbance per well at 510 nm measured using a plate reader. The mean absorbance and standard deviation for each test compound concentration was calculated versus a series of controls including (a) cells plus medium, (b) cell plus medium containing ethanol 0.2%, (c) medium alone, and (d) medium containing ethanol 0.2% and a range of test compound concentrations from 0 to 100 μmol dm^−3.

in vitro = conditions: Chinese hamster
CYP1B1 [4] = biological target: T1, CYP1B1; experiment: CYP1B1 substrate inhibition, P450-Glo Luciferin-CEE luminescent assay; conditions: human
CYP1B1 [5] = biological target: T1, CYP1B1; experiment: CYP1B1 substrate prediction model (Gaussian Kernel weighted k-NN); conditions: predicted versus actual
CYP1A1 [6] = experiment: in vitro; conditions: Chinese hamster
CHO/CYP1B1 cells [7] = experiment: cells; conditions: Cricetulus griseus
CYP1A1 [8] = biological target: T3, CYP1A1 (Homo sapiens, UniProt P04798); experiment: Supersomal CYP1A1 fragmentation of coumarin model prodrugs (kinetic fluorimetry); assay type: biochemical; set-up: purchased BD Gentest, Oxford, UK; conditions: 10 μmol dm^−3 prodrug, 10 pmol enzyme, pH 7.4, 37° C.; mean ± standard deviation of three
T3 sequence (P04798 1-512): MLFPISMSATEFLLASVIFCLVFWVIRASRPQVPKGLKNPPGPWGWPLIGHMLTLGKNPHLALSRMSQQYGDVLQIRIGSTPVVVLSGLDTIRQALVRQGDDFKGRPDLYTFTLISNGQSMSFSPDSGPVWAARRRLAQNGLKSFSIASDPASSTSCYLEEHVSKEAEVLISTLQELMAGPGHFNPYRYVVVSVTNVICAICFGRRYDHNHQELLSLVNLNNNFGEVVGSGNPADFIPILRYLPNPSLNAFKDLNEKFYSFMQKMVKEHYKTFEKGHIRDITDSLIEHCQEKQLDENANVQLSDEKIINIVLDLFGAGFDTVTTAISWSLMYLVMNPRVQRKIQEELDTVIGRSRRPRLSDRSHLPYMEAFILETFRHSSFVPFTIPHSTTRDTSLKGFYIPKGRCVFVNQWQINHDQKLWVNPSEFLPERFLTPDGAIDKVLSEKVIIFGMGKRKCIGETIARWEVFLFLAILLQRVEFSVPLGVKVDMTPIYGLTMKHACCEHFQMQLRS
Protocol: as §1, §2, §3

CYP1B1 [9] = biological target: T1, CYP1B1; experiment: in vitro

Structure (SMILES) | Specific fragmentation activity CYP1B1 (CYP1B1 [1]) | Specific fragmentation activity CYP1A2 (CYP1A2) | Specific fragmentation activity HLM [2] | % CYP1B1 substrate inhibition accuracy (CYP1B1 [5]) [%] | inhibition at 0.5 mmol dm^−3 (CYP1B1 [9]) [%] | other results
Cc1cc(=O)oc2cc(OCc3cc4cc(F)ccc4o3)ccc12 [VG015-05, 7-((5-fluorobenzofuran-2-yl)methoxy)-4-methyl-2H-chromen-2-one] | 3.16 ± 0.28 pmol coumarin min^−1 pmol cytochrome P450^−1 |  |  |  |  | 
Cc1cc(=O)oc2cc(NC(=O)OCc3cc4ccccc4o3)ccc12 [SU018-03, benzofuran-2-ylmethyl 4-methyl-2-oxo-2H-chromen-7-ylcarbamate] | no release | no release | no release |  |  | 
COc1ccc2oc(COC(=O)Nc3ccc4c(C)cc(=O)oc4c3)cc2c1 [VG032-05, (5-methoxybenzofuran-2-yl)methyl 4-methyl-2-oxo-2H-chromen-7-ylcarbamate] | 1.53±0.09 pmol coumarin min^−1 pmol cytochrome P450^−1 | no release | 3.21 ± 0.25 pmol coumarin min^−1 pmol cytochrome P450^−1 |  |  | CYP1B1 specific fragmentation activity, fold lower than VG027-05 (CYP1B1 [1]; carbamate linker versus ether linker): ~6 fold
O=P(O)(NCCCl)NCCCl [Cl-IPM, N,N-bis(2-chloro-ethyl)phosphoramide, reference compound] |  |  |  |  |  | IC50 (CHO/CYP1B1 cells [3]; Chinese hamster): 8 ± 5 nM
COc1cc(OC)c2oc(COC(=O)Nc3ccn(C4OC(CO)C(O)C4(F)F)c(=O)n3)cc2c1 (stereo not drawn) [SU048-04, (5,7-dimethoxybenzofuran-2-yl)methyl 1-(3,3-difluoro-4-hydroxy-5-(hydroxymethyl)-tetrahydrofuran-2-yl)-2-oxo-1,2-dihydropyrimidin-4-ylcarbamate] |  |  |  |  |  | IC50 (UT-SCC-14 tumour cells): 940 ± 20 nM
COc1cc(OC)c2oc(COC(=O)Nc3ccc4c(C)cc(=O)oc4c3)cc2c1 [VG041-05, (5,7-dimethoxybenzofuran-2-yl)methyl 4-methyl-2-oxo-2H-chromen-7-ylcarbamate] | no release | no release | no release |  |  | 
COc1cc(OC)c2oc(COP(=O)(NCCCl)NCCCl)cc2c1 [SU025-04] |  |  |  | 96 |  | IC50 (in vitro; Cytotoxicity (IC50) CHO 72 h): 15200 ± 200 nM; IC50 (in vitro; Cytotoxicity (IC50) CHO 96 h): 10100 ± 300 nM; IC50 (in vitro; cytotoxicity IC50 in wild-type CHO cells): ≥ 10000 nM; inhibition at 0.5 mmol dm^−3 (CYP1B1 [4]): 91.22 ± 0.48%; IC50 (CYP1A1 [6]): 25500 ± 1000 nM; IC50 (CHO/CYP1B1 cells [7]; 72 h, read-out: Cytotoxicity (IC50) CHO/CYP1B1 72 h): 9 ± 5 nM; IC50 (CHO/CYP1B1 cells [7]; 96 h, read-out: Cytotoxicity (IC50) CHO/CYP1B1 96 h): 3 ± 2 nM; IC50 (UT-SCC-14 tumour cells): 50 ± 10 nM; IC50 ratio 72 h (CHO / CHO/CYP1B1) (CHO/CYP1B1 cells [3]): 1689
Cc1cc(=O)oc2cc(OCc3cc4cc(Br)ccc4o3)ccc12 [VG035-04, 7-((5-bromobenzofuran-2-yl)methoxy)-4-methyl-2H-chromen-2-one] | 8.85 ± 0.28 pmol coumarin min^−1 pmol cytochrome P450^−1 |  |  |  |  | 
Cc1cc(=O)oc2cc(OCc3cc4ccccc4o3)ccc12 [SU010A, 7-(benzofuran-2-ylmethoxy)-4-methyl-2H-chromen-2-one] | 5.19 ± 0.15 pmol coumarin min^−1 pmol cytochrome P450^−1 |  | 22.8 ± 0.69 pmol coumarin min^−1 pmol cytochrome P450^−1 |  |  | 
Cc1cc(=O)oc2cc(NC(=O)OCc3cc4cc(Br)ccc4o3)ccc12 [VG036-05, (5-bromobenzofuran-2-yl)methyl 4-methyl-2-oxo-2H-chromen-7-ylcarbamate] | no release | no release | no release |  |  | Specific fragmentation activity CYP1A1 (CYP1A1 [8]): no release
Cc1cc(=O)oc2cc(OCc3cc4cc(Cl)ccc4o3)ccc12 [VG028-05, 7-((5-chlorobenzofuran-2-yl)methoxy)-4-methyl-2H-chromen-2-one] | 6.67 ± 0.01 pmol coumarin min^−1 pmol cytochrome P450^−1 |  |  |  |  | 
Cc1cc(=O)oc2cc(OCc3cc4cc(F)cc(F)c4o3)ccc12 [VG016-05, 7-((5,7-difluorobenzofuran-2-yl)methoxy)-4-methyl-2H-chromen-2-one] | no release | no release | no release | 82 | 2.45 ± 0.32 | Specific fragmentation activity CYP1A1 (CYP1A1 [8]): no release
COc1ccc2oc(COc3ccc4c(C)cc(=O)oc4c3)cc2c1 [VG027-05, 7-((5-methoxybenzofuran-2-yl)methoxy)-4-methyl-2H-chromen-2-one] | 11.83 ± 0.15 pmol coumarin min^−1 pmol cytochrome P450^−1 |  | 8.98 ± 0.49 pmol coumarin min^−1 pmol cytochrome P450^−1 |  |  | 
COc1cccc2cc(COc3ccc4c(C)cc(=O)oc4c3)oc12 [VG029-05, 7-((7-methoxybenzofuran-2-yl)methoxy)-4-methyl-2H-chromen-2-one] | 6.45 ± 1.15 pmol coumarin min^−1 pmol cytochrome P450^−1 |  |  |  |  | 
Nc1ccc(S(=O)(=O)Nc2ccnn2-c2ccccc2)cc1 [sulfaphenazole] |  |  |  | 68 | 2.89 ± 0.15 | 
COc1cc(OC)c2oc(COc3ccc4c(C)cc(=O)oc4c3)cc2c1 [VG035-05, 7-((5,7-dimethoxybenzofuran-2-yl)methoxy)-4-methyl-2H-chromen-2-one] | 13.65±1.00 pmol coumarin min^−1 pmol cytochrome P450^−1 | no release | no release | 96 | 97.34 ± 0.32 | Specific fragmentation activity CYP1A1 (CYP1A1 [8]): no release
Oc1ccc(C=Cc2cc(O)cc(O)c2)cc1 [resveratrol] |  |  |  | 95 | 72.34 ± 0.56 | 
CCOc1ccc2nc3ccc(=O)cc-3oc2c1 [ethoxyresorufin, 7-ethoxyresorufin] |  |  |  | 95 | 92.13 ± 0.56 | 
C=C[C@H]1C[N@@]2CC[C@H]1C[C@@H]2[C@@H](O)c1ccnc2ccc(OC)cc12 [quinidine] |  |  |  | 64 | 1.63 ± 0.34 | 
